From publication PMC5529566, “The cryo-EM structure of gastric H^+,K^+-ATPase with bound BYK99, a high-affinity member of K^+-competitive, imidazo[1,2-a]pyridine inhibitors” (Scientific Reports, 2017)
Several values for one entry are separate records, joined by “and”; a condition that tells them apart may be missing. Identical values can stand only once. One block for each compound: values may come before it.

Tests used:
H^+,K^+-ATPase Y799F [1] = tested on: H^+,K^+-ATPase Y799F; design: method as in PMID 14699149; details: cited from earlier work
[2] = pKa and protonation of imidazo[1,2-a]pyridine; assay type: physicochemical; details: at pH 7.0 of the ATPase assays
H^+,K^+-ATPase L809F [3] = details: cited from earlier work
H^+,K^+-ATPase Y799A [4] = tested on: H^+,K^+-ATPase Y799A; design: method as in PMID 14699149; details: Y799A vs wild-type; cited from earlier work
[5] = biological target: H^+,K^+-ATPase A335C/C813A; design: method as in PMID 12379118; details: cited from earlier work
H^+,K^+-ATPase N138I = H^+,K^+-ATPase N138I (Sus scrofa, UniProt P19156, N139I); assay: ATPase assay, N138I mutant
H^+,K^+-ATPase N138A = H^+,K^+-ATPase N138A (Sus scrofa, UniProt P19156, N139A); assay: ATPase assay, N138A mutant
H^+,K^+-ATPase D137E = biological target: T1, H^+,K^+-ATPase D137E (Sus scrofa, UniProt P19156, D138E); assay: ATPase assay, D137E mutant; assay type: biochemical, pig
T1 construct: made in house; host or cells: HEK293S GnT1- cells (BacMam baculovirus transduction), membrane fraction

H^+,K^+-ATPase D137N = H^+,K^+-ATPase D137N (Sus scrofa, UniProt P19156, D138N); assay: ATPase assay, D137N mutant
[6] = biological target: H^+,K^+-ATPase A335C/C813A (Sus scrofa, UniProt P19156, A336C/C814A); assay: ATPase assay, A335C/C813A mutant
H^+,K^+-ATPase L139F = H^+,K^+-ATPase L139F (Sus scrofa, UniProt P19156, L140F); assay: ATPase assay, L139F mutant
H^+,K^+-ATPase L139A = H^+,K^+-ATPase L139A (Sus scrofa, UniProt P19156, L140A); assay: ATPase assay, L139A mutant
H^+,K^+-ATPase Y140A = H^+,K^+-ATPase Y140A (Sus scrofa, UniProt P19156, Y141A); assay: ATPase assay, Y140A mutant
[7] = biological target: H^+,K^+-ATPase D137N/N138D (Sus scrofa, UniProt P19156, D138N/N139D); assay: ATPase assay, D137N/N138D mutant; details: D137N/N138D
H^+,K^+-ATPase D136L = H^+,K^+-ATPase D136L (Sus scrofa, UniProt P19156, D137L); assay: ATPase assay, D136L mutant
H^+,K^+-ATPase D137F = H^+,K^+-ATPase D137F (Sus scrofa, UniProt P19156, D138F); assay: ATPase assay, D137F mutant
H^+,K^+-ATPase Y140L = H^+,K^+-ATPase Y140L (Sus scrofa, UniProt P19156, Y141L); assay: ATPase assay, Y140L mutant
H^+,K^+-ATPase D136I = H^+,K^+-ATPase D136I (Sus scrofa, UniProt P19156, D137I); assay: ATPase assay, D136I mutant
H^+,K^+-ATPase D137L = H^+,K^+-ATPase D137L (Sus scrofa, UniProt P19156, D138L); assay: ATPase assay, D137L mutant
Chain of H^+,K^+-ATPase D137L (P19156 whole entry D138L): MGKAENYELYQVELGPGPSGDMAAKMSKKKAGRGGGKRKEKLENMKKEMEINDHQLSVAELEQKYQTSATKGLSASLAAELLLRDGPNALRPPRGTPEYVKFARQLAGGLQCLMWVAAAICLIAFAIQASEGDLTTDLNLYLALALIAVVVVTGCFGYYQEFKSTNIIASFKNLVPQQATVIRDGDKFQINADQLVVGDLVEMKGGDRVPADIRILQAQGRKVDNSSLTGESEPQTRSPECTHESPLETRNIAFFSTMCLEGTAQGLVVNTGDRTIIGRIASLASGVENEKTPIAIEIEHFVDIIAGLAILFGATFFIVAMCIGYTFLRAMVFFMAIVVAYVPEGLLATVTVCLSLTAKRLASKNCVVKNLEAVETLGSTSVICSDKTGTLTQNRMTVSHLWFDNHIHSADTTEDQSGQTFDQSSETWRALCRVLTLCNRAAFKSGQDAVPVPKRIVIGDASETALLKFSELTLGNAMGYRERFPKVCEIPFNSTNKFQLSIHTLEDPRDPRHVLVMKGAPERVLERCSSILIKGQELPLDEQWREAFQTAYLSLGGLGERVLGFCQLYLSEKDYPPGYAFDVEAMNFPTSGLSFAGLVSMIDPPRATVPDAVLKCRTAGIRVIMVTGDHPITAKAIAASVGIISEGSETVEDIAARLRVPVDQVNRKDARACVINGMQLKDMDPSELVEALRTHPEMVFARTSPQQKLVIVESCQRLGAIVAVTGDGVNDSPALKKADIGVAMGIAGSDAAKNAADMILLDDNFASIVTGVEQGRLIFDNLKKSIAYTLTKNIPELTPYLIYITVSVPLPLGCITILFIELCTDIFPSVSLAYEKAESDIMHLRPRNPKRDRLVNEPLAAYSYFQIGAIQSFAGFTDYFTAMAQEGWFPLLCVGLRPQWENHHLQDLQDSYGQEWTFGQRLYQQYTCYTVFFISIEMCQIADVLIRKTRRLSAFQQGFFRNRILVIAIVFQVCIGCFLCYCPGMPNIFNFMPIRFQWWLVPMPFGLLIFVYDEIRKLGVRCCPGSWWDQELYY
Chain of H^+,K^+-ATPase D137L (P18434 whole entry partner): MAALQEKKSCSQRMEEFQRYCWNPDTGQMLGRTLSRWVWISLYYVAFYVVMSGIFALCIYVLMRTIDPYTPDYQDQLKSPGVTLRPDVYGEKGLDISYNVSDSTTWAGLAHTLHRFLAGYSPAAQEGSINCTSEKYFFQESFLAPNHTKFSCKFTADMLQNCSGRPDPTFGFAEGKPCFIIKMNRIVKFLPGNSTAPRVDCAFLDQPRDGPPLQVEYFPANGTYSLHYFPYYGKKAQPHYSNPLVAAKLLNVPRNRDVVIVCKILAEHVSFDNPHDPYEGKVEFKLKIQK

H^+,K^+-ATPase D136F = H^+,K^+-ATPase D136F (Sus scrofa, UniProt P19156, D137F); assay: ATPase assay, D136F mutant
H^+,K^+-ATPase A335G = H^+,K^+-ATPase A335G (Sus scrofa, UniProt P19156, A336G); assay: ATPase assay, A335G mutant
H^+,K^+-ATPase D137I = H^+,K^+-ATPase D137I (Sus scrofa, UniProt P19156, D138I); assay: ATPase assay, D137I mutant
H^+,K^+-ATPase L809F [8] = biological target: H^+,K^+-ATPase L809F (Sus scrofa, UniProt P19156, L810F); assay: ATPase assay, L809F mutant
Chain of H^+,K^+-ATPase L809F (Sus scrofa, UniProt P19156, L810F) (P19156 whole entry L810F): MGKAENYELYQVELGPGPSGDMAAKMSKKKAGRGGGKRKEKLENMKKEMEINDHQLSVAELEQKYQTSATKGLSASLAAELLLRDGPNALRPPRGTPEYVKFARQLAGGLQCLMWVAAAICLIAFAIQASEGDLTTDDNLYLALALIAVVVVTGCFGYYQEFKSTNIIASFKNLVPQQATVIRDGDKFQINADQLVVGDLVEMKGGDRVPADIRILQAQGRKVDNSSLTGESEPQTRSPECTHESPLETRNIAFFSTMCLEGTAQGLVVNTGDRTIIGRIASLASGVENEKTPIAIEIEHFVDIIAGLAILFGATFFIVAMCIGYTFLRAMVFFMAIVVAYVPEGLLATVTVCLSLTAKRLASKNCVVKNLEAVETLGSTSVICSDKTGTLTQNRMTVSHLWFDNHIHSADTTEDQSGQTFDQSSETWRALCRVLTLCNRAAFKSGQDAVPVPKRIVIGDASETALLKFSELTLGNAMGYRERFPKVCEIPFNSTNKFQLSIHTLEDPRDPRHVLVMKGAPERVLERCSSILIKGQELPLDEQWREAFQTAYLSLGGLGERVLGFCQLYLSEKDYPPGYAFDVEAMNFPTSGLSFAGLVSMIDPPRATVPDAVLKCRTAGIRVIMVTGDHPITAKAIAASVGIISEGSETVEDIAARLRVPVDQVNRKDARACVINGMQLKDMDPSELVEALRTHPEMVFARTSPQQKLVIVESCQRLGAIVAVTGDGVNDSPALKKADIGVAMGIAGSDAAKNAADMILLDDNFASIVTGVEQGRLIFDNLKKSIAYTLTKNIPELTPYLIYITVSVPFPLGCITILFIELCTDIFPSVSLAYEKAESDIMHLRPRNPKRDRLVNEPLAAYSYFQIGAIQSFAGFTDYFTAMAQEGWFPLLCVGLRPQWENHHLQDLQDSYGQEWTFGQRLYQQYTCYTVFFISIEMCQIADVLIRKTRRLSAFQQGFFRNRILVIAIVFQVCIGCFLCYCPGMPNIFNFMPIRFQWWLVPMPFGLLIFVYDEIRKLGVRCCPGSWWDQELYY
Chain of H^+,K^+-ATPase L809F (Sus scrofa, UniProt P19156, L810F) (P18434 whole entry partner): as the sequence (P18434 whole entry partner) above

H^+,K^+-ATPase Y140I = H^+,K^+-ATPase Y140I (Sus scrofa, UniProt P19156, Y141I); assay: ATPase assay, Y140I mutant
Chain of H^+,K^+-ATPase Y140I (P19156 whole entry Y141I): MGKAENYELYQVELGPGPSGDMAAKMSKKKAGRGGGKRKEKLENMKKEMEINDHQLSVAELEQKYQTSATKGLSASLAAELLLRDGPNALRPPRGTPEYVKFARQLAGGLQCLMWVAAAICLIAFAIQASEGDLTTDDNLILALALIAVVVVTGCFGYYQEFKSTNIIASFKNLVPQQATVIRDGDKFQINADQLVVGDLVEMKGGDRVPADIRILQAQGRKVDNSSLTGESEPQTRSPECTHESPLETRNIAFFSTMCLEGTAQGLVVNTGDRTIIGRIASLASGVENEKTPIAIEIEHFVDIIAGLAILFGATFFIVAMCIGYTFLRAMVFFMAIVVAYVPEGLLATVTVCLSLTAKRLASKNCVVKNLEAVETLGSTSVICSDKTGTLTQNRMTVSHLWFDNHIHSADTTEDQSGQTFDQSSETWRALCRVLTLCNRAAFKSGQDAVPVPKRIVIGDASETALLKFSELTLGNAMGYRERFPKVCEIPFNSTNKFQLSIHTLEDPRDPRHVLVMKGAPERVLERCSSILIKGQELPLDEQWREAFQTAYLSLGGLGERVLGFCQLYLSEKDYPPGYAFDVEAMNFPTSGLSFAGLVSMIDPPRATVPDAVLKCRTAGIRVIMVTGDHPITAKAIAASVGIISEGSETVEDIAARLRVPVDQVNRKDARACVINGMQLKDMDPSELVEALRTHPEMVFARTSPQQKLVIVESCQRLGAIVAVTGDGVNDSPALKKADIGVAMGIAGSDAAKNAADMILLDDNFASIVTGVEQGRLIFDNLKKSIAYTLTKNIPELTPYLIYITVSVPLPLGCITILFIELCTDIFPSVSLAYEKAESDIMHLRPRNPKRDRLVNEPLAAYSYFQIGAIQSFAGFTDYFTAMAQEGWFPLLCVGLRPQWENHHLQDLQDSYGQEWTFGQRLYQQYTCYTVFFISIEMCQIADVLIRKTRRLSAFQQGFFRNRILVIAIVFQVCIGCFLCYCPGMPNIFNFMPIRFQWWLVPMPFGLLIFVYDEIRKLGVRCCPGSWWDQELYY
Chain of H^+,K^+-ATPase Y140I (P18434 whole entry partner): as the sequence (P18434 whole entry partner) above

H^+,K^+-ATPase N138L = H^+,K^+-ATPase N138L (Sus scrofa, UniProt P19156, N139L); assay: ATPase assay, N138L mutant
H^+,K^+-ATPase N138D = H^+,K^+-ATPase N138D (Sus scrofa, UniProt P19156, N139D); assay: ATPase assay, N138D mutant
H^+,K^+-ATPase = H^+,K^+-ATPase (Sus scrofa, UniProt P19156); assay: Dose-dependent inhibition of H^+,K^+-ATPase activity in the presence of 10 mM KCl
H^+,K^+-ATPase D137A = H^+,K^+-ATPase D137A (Sus scrofa, UniProt P19156, D138A); assay: ATPase assay, D137A mutant
H^+,K^+-ATPase Y799A [9] = biological target: H^+,K^+-ATPase Y799A (Sus scrofa, UniProt P19156, Y800A); assay: ATPase assay, Y799A mutant
H^+,K^+-ATPase N138F = H^+,K^+-ATPase N138F (Sus scrofa, UniProt P19156, N139F); assay: ATPase assay, N138F mutant
H^+,K^+-ATPase L141I = H^+,K^+-ATPase L141I (Sus scrofa, UniProt P19156, L142I); assay: ATPase assay, L141I mutant
H^+,K^+-ATPase D136A = H^+,K^+-ATPase D136A (Sus scrofa, UniProt P19156, D137A); assay: ATPase assay, D136A mutant
H^+,K^+-ATPase Y799F [10] = biological target: H^+,K^+-ATPase Y799F (Sus scrofa, UniProt P19156, Y800F); assay: ATPase assay, Y799F mutant
H^+,K^+-ATPase L139I = H^+,K^+-ATPase L139I (Sus scrofa, UniProt P19156, L140I); assay: ATPase assay, L139I mutant
H^+,K^+-ATPase Y140F = H^+,K^+-ATPase Y140F (Sus scrofa, UniProt P19156, Y141F); assay: ATPase assay, Y140F mutant
Chain of H^+,K^+-ATPase Y140F (P19156 whole entry Y141F): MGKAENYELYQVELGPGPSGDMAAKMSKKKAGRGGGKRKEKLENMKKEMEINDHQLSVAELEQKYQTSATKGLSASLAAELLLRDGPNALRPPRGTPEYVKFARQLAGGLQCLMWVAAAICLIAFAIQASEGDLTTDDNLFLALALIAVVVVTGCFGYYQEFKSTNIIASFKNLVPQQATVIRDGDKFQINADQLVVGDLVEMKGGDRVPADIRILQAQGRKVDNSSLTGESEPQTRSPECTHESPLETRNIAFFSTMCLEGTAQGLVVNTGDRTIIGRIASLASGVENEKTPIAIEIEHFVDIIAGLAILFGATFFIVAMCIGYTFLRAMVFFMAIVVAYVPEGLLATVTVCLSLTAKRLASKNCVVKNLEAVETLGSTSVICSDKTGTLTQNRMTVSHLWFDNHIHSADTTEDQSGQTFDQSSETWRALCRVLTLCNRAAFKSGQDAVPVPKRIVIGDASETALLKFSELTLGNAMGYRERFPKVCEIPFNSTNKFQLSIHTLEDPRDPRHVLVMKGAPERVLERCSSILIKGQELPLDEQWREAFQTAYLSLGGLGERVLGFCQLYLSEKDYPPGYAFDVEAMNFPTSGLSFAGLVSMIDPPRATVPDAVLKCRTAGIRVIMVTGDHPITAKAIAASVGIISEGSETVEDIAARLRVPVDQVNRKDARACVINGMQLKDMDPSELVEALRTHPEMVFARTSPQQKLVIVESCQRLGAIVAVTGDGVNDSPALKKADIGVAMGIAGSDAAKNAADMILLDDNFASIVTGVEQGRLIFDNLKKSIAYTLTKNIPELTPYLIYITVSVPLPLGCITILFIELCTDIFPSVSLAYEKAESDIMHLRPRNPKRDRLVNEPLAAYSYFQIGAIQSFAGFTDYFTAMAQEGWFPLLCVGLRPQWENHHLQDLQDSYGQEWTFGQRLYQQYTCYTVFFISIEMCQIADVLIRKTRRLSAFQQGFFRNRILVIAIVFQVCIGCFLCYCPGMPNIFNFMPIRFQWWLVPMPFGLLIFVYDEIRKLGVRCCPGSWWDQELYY
Chain of H^+,K^+-ATPase Y140F (P18434 whole entry partner): as the sequence (P18434 whole entry partner) above

H^+,K^+-ATPase WT = biological target: T2, H^+,K^+-ATPase WT (Sus scrofa, UniProt P19156); assay: K^+-competitive inhibition of H^+,K^+-ATPase activity, 96-well ATPase assay, wild-type; assay type: biochemical, pig; details: WT
T2 construct: made in house; host or cells: HEK293S GnT1- cells (BacMam baculovirus transduction); permeabilised membrane fractions

SMILES: Cc1nc2c(OCc3ccccc3)cccn2c1CC#N [SCH28080]
- effect on affinity (in words) (H^+,K^+-ATPase Y799F [1]): negligible effects
- protonation [2]: approximately 2.5%
- fold reduced affinity (H^+,K^+-ATPase L809F [3]; L809F vs wild-type, previously reported): more than 90 fold
- Ki (H^+,K^+-ATPase L809F [3]; L809F): 6.15 µM
- fold low apparent affinity (IC 50) (H^+,K^+-ATPase Y799A [4]): ~ 100 fold and 100 fold
- Ki [5]: > 40 µM
- affinity (in words) [5]: almost no affinity

- Ki (H^+,K^+-ATPase N138I): 3.7 ± 0.7 µM
- -fold increase in K i compared with wild-type (H^+,K^+-ATPase N138I; N138I): 1.2 fold
- Ki (H^+,K^+-ATPase N138A): 4.2 ± 0.5 µM
- -fold increase in K i compared with wild-type (H^+,K^+-ATPase N138A; N138A): 1.3 fold
- -fold increase in K i compared with wild-type (H^+,K^+-ATPase D137E): 1.4 fold
- Ki (H^+,K^+-ATPase D137E; high H^+-ATPase activity, K i' determined by K m/V max plot): 4.4 ± 0.4 µM
- Ki (H^+,K^+-ATPase D137N): 120 ± 30 µM
- -fold increase in K i compared with wild-type (H^+,K^+-ATPase D137N; D137N): 38 fold
- Ki [6]: 71 ± 10 µM
- -fold increase in K i compared with wild-type ([6]; A335C/C813A): 22 fold
- Ki (H^+,K^+-ATPase L139F): 6.6 ± 0.5 µM
- -fold increase in K i compared with wild-type (H^+,K^+-ATPase L139F; L139F): 2.1 fold
- Ki (H^+,K^+-ATPase L139A): 3.3 ± 0.3 µM
- -fold increase in K i compared with wild-type (H^+,K^+-ATPase L139A; L139A): 1.0 fold
- Ki (H^+,K^+-ATPase Y140A): 7.3 ± 1 µM
- -fold increase in K i compared with wild-type (H^+,K^+-ATPase Y140A; Y140A): 2.3 fold
- -fold increase in K i compared with wild-type [7]: 7.2 fold
- Ki ([7]; global fitting): 23 ± 20 µM
- Ki (H^+,K^+-ATPase D136L): 3.3 ± 0.2 µM
- -fold increase in K i compared with wild-type (H^+,K^+-ATPase D136L; D136L): 1.0 fold
- Ki (H^+,K^+-ATPase D137F): 47 ± 6 µM
- -fold increase in K i compared with wild-type (H^+,K^+-ATPase D137F; D137F): 15 fold
- Ki (H^+,K^+-ATPase Y140L): 2.7 ± 0.2 µM
- -fold increase in K i compared with wild-type (H^+,K^+-ATPase Y140L; Y140L): 0.8 fold
- Ki (H^+,K^+-ATPase D136I): 4.1 ± 0.3 µM
- -fold increase in K i compared with wild-type (H^+,K^+-ATPase D136I; D136I): 1.3 fold
- Ki (H^+,K^+-ATPase D137L): 32 ± 6 µM
- -fold increase in K i compared with wild-type (H^+,K^+-ATPase D137L; D137L): 10 fold
- Ki (H^+,K^+-ATPase D136F): 2.9 ± 0.1 µM
- -fold increase in K i compared with wild-type (H^+,K^+-ATPase D136F; D136F): 0.9 fold
- Ki (H^+,K^+-ATPase A335G): 1 ± 0.1 µM
- -fold increase in K i compared with wild-type (H^+,K^+-ATPase A335G; A335G): 0.3 fold
- Ki (H^+,K^+-ATPase D137I): 39 ± 7 µM
- -fold increase in K i compared with wild-type (H^+,K^+-ATPase D137I; D137I): 12 fold
- Ki (H^+,K^+-ATPase L809F [8]): 98 ± 12 µM
- -fold increase in K i compared with wild-type (H^+,K^+-ATPase L809F [8]; L809F): 31 fold
- Ki (H^+,K^+-ATPase Y140I): 2.1 ± 0.2 µM
- -fold increase in K i compared with wild-type (H^+,K^+-ATPase Y140I; Y140I): 0.7 fold
- Ki (H^+,K^+-ATPase N138L): 14 ± 2 µM
- -fold increase in K i compared with wild-type (H^+,K^+-ATPase N138L; N138L): 4.4 fold
- Ki (H^+,K^+-ATPase N138D): 2.6 ± 0.2 µM
- -fold increase in K i compared with wild-type (H^+,K^+-ATPase N138D; N138D): 0.8 fold
- IC50 (H^+,K^+-ATPase): 110 µM
- Ki (H^+,K^+-ATPase D137A): 28 ± 2 µM
- -fold increase in K i compared with wild-type (H^+,K^+-ATPase D137A; D137A): 8.8 fold
- Ki (H^+,K^+-ATPase Y799A [9]): 81 ± 15 µM
- -fold increase in K i compared with wild-type (H^+,K^+-ATPase Y799A [9]; Y799A): 25 fold
- Ki (H^+,K^+-ATPase N138F): 52 ± 9 µM
- -fold increase in K i compared with wild-type (H^+,K^+-ATPase N138F; N138F): 16 fold
- Ki (H^+,K^+-ATPase L141I): 2.4 ± 0.2 µM
- -fold increase in K i compared with wild-type (H^+,K^+-ATPase L141I; L141I): 0.8 fold
- Ki (H^+,K^+-ATPase D136A): 5.1 ± 0.4 µM
- -fold increase in K i compared with wild-type (H^+,K^+-ATPase D136A; D136A): 1.6 fold
- Ki (H^+,K^+-ATPase Y799F [10]): 18 ± 2 µM
- -fold increase in K i compared with wild-type (H^+,K^+-ATPase Y799F [10]; Y799F): 5.6 fold
- Ki (H^+,K^+-ATPase L139I): 1.1 ± 0.1 µM
- -fold increase in K i compared with wild-type (H^+,K^+-ATPase L139I; L139I): 0.3 fold
- Ki (H^+,K^+-ATPase Y140F): 3.7 ± 0.2 µM
- -fold increase in K i compared with wild-type (H^+,K^+-ATPase Y140F; Y140F): 1.2 fold
- -fold increase in K i compared with wild-type (H^+,K^+-ATPase WT): 1.0 fold
- Ki (H^+,K^+-ATPase WT; global fitting, mean ± SEM): 3.2 ± 0.3 µM
SMILES: Cc1cn2cccc(OCc3ccccc3)c2n1 [SCH-CN^−]
